Test results as given in patent publication US20220213113A1, “NITROGEN-CONTAINING CONDENSED CYCLIC COMPOUNDS, FLUORESCENCE EMITTERS, ORGANIC ELECTROLUMINESCENT DEVICES, AND MATERIALS FOR ORGANIC ELECTROLUMINESCENT DEVICES” (Samsung Electronics Co., Ltd., priority 2020, published 2022).
Values after ≈ are worked out from the molar mass of the structure shown.

Assay: Evaluation of solubility in mesitylene
Assay type: physicochemical
Details: organic solvent or mixture, thermodynamic from solid; 10 mg compound in test tube, heated at 160° C., mesitylene added until completely dissolved
Procedure: 10 mg of the obtained Compounds D1 to D9 and Comparative Compound C1 were each placed in a test tube, mesitylene was added thereto, and were heated at a temperature of 160° C. Mesitylene was added thereto until the compounds were completely dissolved and the solubility was calculated.
With Cc1cc(C)c(-c2ccc3c(c2)c2c4c5ccccc5n5c6ccc(-c7c(C)cc(C)cc7C)cc6c(c6c7ccccc7n3c62)c45)c(C)c1 [Compound D1] the solubility was 2000 µg/mL (≈ 3.12 mM). CC(C)(C)c1cc(-c2ccc3c4c5c6cccc(-c7ccccc7)c6n6c7cc(-c8cc(C(C)(C)C)cc(C(C)(C)C)c8)ccc7c(c7c8cccc(-c9ccccc9)c8n(c3c2)c47)c56)cc(C(C)(C)C)c1 [Compound D9] gave a solubility of 3000 µg/mL (≈ 3.21 mM). Molecule CC(C)(C)c1cc(-c2ccc3c4c5c6cc(C(C)(C)C)ccc6n6c7cc(-c8cc(C(C)(C)C)cc(C(C)(C)C)c8)ccc7c(c7c8cc(C(C)(C)C)ccc8n(c3c2)c74)c56)cc(C(C)(C)C)c1 [Compound D6] has a solubility of 1000 µg/mL (≈ 1.12 mM). In the case of CC(C)(C)c1cc(-c2ccc3c4c5c6ccc(C(C)(C)C)cc6n6c7cc(-c8cc(C(C)(C)C)cc(C(C)(C)C)c8)ccc7c(c7c8ccc(C(C)(C)C)cc8n(c3c2)c47)c56)cc(C(C)(C)C)c1 [Compound D5], the solubility is reported as 10100 µg/mL (≈ 11.3 mM). Work on c1ccc(-c2cccc(-c3ccccc3)c2-c2ccc3c4c5c6ccccc6n6c7cc(-c8c(-c9ccccc9)cccc8-c8ccccc8)ccc7c(c7c8ccccc8n(c3c2)c74)c56)cc1 [Compound D7] yielded a solubility of 3100 µg/mL (≈ 3.6 mM). In the case of CC(C)(C)c1ccc(-c2ccc3c(c2)c2c4c5ccccc5n5c6ccc(-c7ccc(C(C)(C)C)cc7)cc6c(c6c7ccccc7n3c62)c45)cc1 [Compound D2], the solubility is reported as 1300 µg/mL (≈ 1.94 mM). Work on CC(C)(C)c1cc(-c2cccc3c4c5c6ccccc6n6c7c(-c8cc(C(C)(C)C)cc(C(C)(C)C)c8)cccc7c(c7c8ccccc8n(c23)c74)c56)cc(C(C)(C)C)c1 [Compound D8] yielded a solubility of 10300 µg/mL (≈ 13.2 mM). CC(C)(C)c1cc(-c2ccc3c4c5c6ccccc6n6c7cc(-c8cc(C(C)(C)C)cc(C(C)(C)C)c8)ccc7c(c7c8ccccc8n(c3c2)c74)c56)cc(C(C)(C)C)c1 [Compound D4] showed a solubility of 3200 µg/mL (≈ 4.1 mM). Molecule CC(C)(C)c1ccc(-c2ccc3c4c5c6ccccc6n6c7cc(-c8ccc(C(C)(C)C)cc8)ccc7c(c7c8ccccc8n(c3c2)c74)c56)cc1 [Compound D3] has a solubility of 1000 µg/mL (≈ 1.5 mM).
